Experiment [1] concerns serum complement activity. In words: Guinea Pig Intraperitoneal Test (GPIP). As to conditions: Cavia porcellus, ip, 200 mg/kg i.p. The experiment is classed as in vivo. The method, then:
The concentration of compound inhibiting 50% is reported; and (iv) Guinea Pig Intraperitoneal Test (GPIP): Guinea pigs weighing about 300 g are dosed intraperitoneally (i.p.) with 200 mg/kg of the test compound dissolved in saline and adjusted to pH 7-8. Approximately 0.4 ml blood samples, taken by orbital sinus puncture 2 hours and 6 hours after injections, are collected directly into centifuge tubes; 5 ml blood samples, taken by decapitation 24 hours after injection, are collected directly into beakers. The samples are allowed to clot, centrifuged, and the resultant sera are assayed for complement activity using the capillary complement assay. Percent inhibition is calculated by comparison with simultaneous controls.

For the next experiment, the target named is activated human C1 (Homo sapiens, UniProt P09871). In words: Test Code 026 (C1 inhibitor). The experiment is classed as biochemical. As to conditions: serial dilution assay, twofold dilutions; higher well number indicates higher activity.
Experiment [2] concerns late components of human complement (C3-C9). In words: Test Code 035 (C3-C9 inhibitor), lysis of EAC 142. The format is biochemical. As to conditions: serial dilution assay, twofold dilutions; higher well number indicates higher activity.
For the next experiment, the system named is human serum complement. As to conditions: both in vitro and in vivo; cited from earlier work.
The mark [3] stands for this setting: serum complement 2 hours after injection, read-out: In vivo Activity Guinea Pig % Inhibition Intraperitoneal, 2 hours.
The mark [4] stands for this setting: serum complement 6 hours after injection, read-out: In vivo Activity Guinea Pig % Inhibition Intraperitoneal, 6 hours.
Setting [5] is: serum complement 24 hours after injection, read-out: In vivo Activity Guinea Pig % Inhibition Intraperitoneal, 24 hours.

Counter-ions that a name gives are not always drawn. Like-named read-outs stand apart in the source and are kept apart here.

Take `CCOC(=O)C(=O)Nc1ccc(S[C@@H]2O[C@H](COS(=O)(=O)O)[C@@H](O[C@H]3O[C@H](COS(=O)(=O)O)[C@@H](OS(=O)(=O)O)[C@H](OS(=O)(=O)O)[C@H]3OS(=O)(=O)O)[C@H](OS(=O)(=O)O)[C@H]2OS(=O)(=O)O)cc1` [4-(Ethoxyoxalylamino)phenyl 2,3,6-tri-O-sulfo-4-O-(2,3,4,6-tetra-O-sulfo-α-D-glucopyranosyl)-1-thio-β-D-glucopyranoside heptasodium salt]: the inhibition at 200 mg/kg in experiment [1] (setting [3]) was determined as 81%; in experiment [1] (setting [4]), 71%; in experiment [1] (setting [5]), 32%. The “In vitro Activity C1 026 Wells” value on activated human C1 is 8 Wells.

`O=S(=O)([O-])OC[C@H]1O[C@@H](Sc2ccc(F)cc2)[C@H](OS(=O)(=O)[O-])[C@@H](OS(=O)(=O)[O-])[C@@H]1O[C@H]1O[C@H](COS(=O)(=O)[O-])[C@@H](OS(=O)(=O)[O-])[C@H](OS(=O)(=O)[O-])[C@H]1OS(=O)(=O)[O-].[Na+].[Na+].[Na+].[Na+].[Na+].[Na+].[Na+]` [4-Fluorophenyl 2,3,6-tri-O-sulfo-4-O-(2,3,4,6-tetra-O-sulfo-α-D-glucopyranosyl)-1-thio-β-D-glucopyranoside heptasodium salt]: at activated human C1, the “In vitro Activity C1 026 Wells” value is 8 Wells.

As to “4-(Sulfanilamido)phenyl 2,3,6-tri-O-sulfo-4-O-(2,3,4,6-tetra-O-sulfo-α-D-glucopyranosyl)-1-thio-β-D-glucopyranoside octasodium salt”, at activated human C1, the “In vitro Activity C1 026 Wells” value amounted to 5 Wells.

Consider `Nc1ccc(S[C@@H]2O[C@H](COS(=O)(=O)[O-])[C@@H](O[C@H]3O[C@H](COS(=O)(=O)[O-])[C@@H](OS(=O)(=O)[O-])[C@H](OS(=O)(=O)[O-])[C@H]3OS(=O)(=O)[O-])[C@H](OS(=O)(=O)[O-])[C@H]2OS(=O)(=O)[O-])cc1.[Na+].[Na+].[Na+].[Na+].[Na+].[Na+].[Na+]` [4-Aminophenyl 2,3,6-tri-O-sulfo-4-O-(2,3,4,6-tetra-O-sulfo-α-D-glucopyranosyl)-1-thio-β-D-glucopyranoside heptasodium salt], for which the inhibition at 200 mg/kg was 61% in experiment [1] (setting [3]), 19% in experiment [1] (setting [4]) and 42% in experiment [1] (setting [5]). Also, the “In vitro Activity C1 026 Wells” value at activated human C1 is 9 Wells.

Regarding `O=S(=O)(O)OC[C@H]1O[C@@H]([S+]([O-])c2cc(OS(=O)(=O)O)ccc2OS(=O)(=O)O)[C@H](OS(=O)(=O)O)[C@@H](OS(=O)(=O)O)[C@@H]1O[C@H]1O[C@H](COS(=O)(=O)O)[C@@H](OS(=O)(=O)O)[C@H](OS(=O)(=O)O)[C@H]1OS(=O)(=O)O` (stereo partly drawn) [2,5-Bis(sulfooxy)phenyl 2,3,6-tri-O-sulfo-4-O-(2,3,4,6-tetra-O-sulfo-α-D-glucopyranosyl)-1-sulfinyl-β-D-glucopyranoside nonasodium salt], in experiment [2], the “In vitro Activity C-Late 035 Wells” value was found to be 2 Wells. For the same compound, the “In vitro Activity C1 026 Wells” value on activated human C1 is 11 Wells.

For `COc1ccc(S[C@@H]2O[C@H](COS(=O)(=O)[O-])[C@@H](O[C@H]3O[C@H](COS(=O)(=O)[O-])[C@@H](OS(=O)(=O)[O-])[C@H](OS(=O)(=O)[O-])[C@H]3OS(=O)(=O)[O-])[C@H](OS(=O)(=O)[O-])[C@H]2OS(=O)(=O)[O-])cc1.[Na+].[Na+].[Na+].[Na+].[Na+].[Na+].[Na+]` [4-Methoxyphenyl 2,3,6-tri-O-sulfo-4-O-(2,3,4,6-tetra-O-sulfo-α-D-glucopyranosyl)-1-thio-β-D-glucopyranoside heptasodium salt], the “In vitro Activity C1 026 Wells” value at activated human C1 is 4 Wells.

For the compound `O=S(=O)([O-])OC[C@H]1O[C@@H](Sc2cc(OS(=O)(=O)[O-])ccc2OS(=O)(=O)[O-])[C@H](OS(=O)(=O)[O-])[C@@H](OS(=O)(=O)[O-])[C@@H]1O[C@H]1O[C@H](COS(=O)(=O)[O-])[C@@H](OS(=O)(=O)[O-])[C@H](OS(=O)(=O)[O-])[C@H]1OS(=O)(=O)[O-].[Na+].[Na+].[Na+].[Na+].[Na+].[Na+].[Na+].[Na+].[Na+]` [2,5-Bis(sulfooxy)phenyl 2,3,6-tri-O-sulfo-4-O-(2,3,4,6-tetra-O-sulfo-α-D-glucopyranosyl)-1-thio-β-D-glucopyranoside nonasodium salt], the inhibition at 200 mg/kg in experiment [1] (setting [3]) is 83%; in experiment [1] (setting [4]), 77%. Besides, the “In vitro Activity C-Late 035 Wells” value in experiment [2] is 2 Wells. Further, the “In vitro Activity C1 026 Wells” value at activated human C1 stood at 9 Wells.

In the case of pentosan-polysulfoester, the “anticomplementary activity, judged by the reduction in total hemolytic complement activity” value in the experiment with human serum complement is “has an anticomplementary activity on human serum, both in vitro and in vivo”.

For `CC(=O)Nc1ccc(S[C@@H]2O[C@H](COS(=O)(=O)O)[C@@H](O[C@@H]3O[C@H](COS(=O)(=O)O)[C@@H](OS(=O)(=O)O)[C@H](OS(=O)(=O)O)[C@H]3OS(=O)(=O)O)[C@H](OS(=O)(=O)O)[C@H]2OS(=O)(=O)O)cc1` [4-acetamidophenyl 2,3,6-tri-O-sulfo-4-O-(2,3,4,6-tetra-O-sulfo-β-D-glucopyranosyl)-1-thio-β-D-glucopyranoside heptasodium salt], the inhibition at 200 mg/kg in experiment [1] (setting [3]) came to 86%; in experiment [1] (setting [4]) it was 66%; in experiment [1] (setting [5]), 15%.

Turning to `O=S(=O)([O-])OC[C@H]1O[C@@H](Sc2ccc(OS(=O)(=O)[O-])cc2)[C@H](OS(=O)(=O)[O-])[C@@H](OS(=O)(=O)[O-])[C@@H]1O[C@H]1O[C@H](COS(=O)(=O)[O-])[C@@H](OS(=O)(=O)[O-])[C@H](OS(=O)(=O)[O-])[C@H]1OS(=O)(=O)[O-].[Na+].[Na+].[Na+].[Na+].[Na+].[Na+].[Na+].[Na+]` [4-Sulfooxyphenyl 2,3,6-tri-O-sulfo-4-O-(2,3,4,6-tetra-O-sulfo-α-D-glucopyranosyl)-1-thio-β-D-glucopyranoside octasodium salt], the “In vitro Activity C1 026 Wells” value on activated human C1 worked out at 8 Wells.

With `O=C([O-])c1ccccc1S[C@@H]1O[C@H](COS(=O)(=O)[O-])[C@@H](O[C@H]2O[C@H](COS(=O)(=O)[O-])[C@@H](OS(=O)(=O)[O-])[C@H](OS(=O)(=O)[O-])[C@H]2OS(=O)(=O)[O-])[C@H](OS(=O)(=O)[O-])[C@H]1OS(=O)(=O)[O-].[Na+].[Na+].[Na+].[Na+].[Na+].[Na+].[Na+].[Na+]` [2-Carboxyphenyl 2,3,6-tri-O-sulfo-4-O-(2,3,4,6-tetra-O-sulfo-α-D-glucopyranosyl)-1-thio-β-D-glucopyranoside octasodium salt], at activated human C1, the “In vitro Activity C1 026 Wells” value stood at 8 Wells.

`O=S(=O)(O)OC[C@H]1O[C@@H](Sc2cccc(S)c2)[C@H](OS(=O)(=O)O)[C@@H](OS(=O)(=O)O)[C@@H]1O[C@H]1O[C@H](COS(=O)(=O)O)[C@@H](OS(=O)(=O)O)[C@H](OS(=O)(=O)O)[C@H]1OS(=O)(=O)O.[Na+].[Na+].[Na+].[Na+].[Na+].[Na+].[Na+].[Na+]` [3-Mercaptophenyl 2,3,6-tri-O-sulfo-4-O-(2,3,4,6-tetra-O-sulfo-α-D-glucopyranosyl)-1-thio-β-D-glucopyranoside octasodium salt]: the “In vitro Activity C-Late 035 Wells” value in experiment [2] stood at 3 Wells. The “In vitro Activity C1 026 Wells” value on activated human C1 is listed as 11 Wells.

Regarding `O=S(=O)([O-])OC[C@H]1O[C@@H](Sc2cccc(C(F)(F)F)c2)[C@H](OS(=O)(=O)[O-])[C@@H](OS(=O)(=O)[O-])[C@@H]1O[C@H]1O[C@H](COS(=O)(=O)[O-])[C@@H](OS(=O)(=O)[O-])[C@H](OS(=O)(=O)[O-])[C@H]1OS(=O)(=O)[O-].[Na+].[Na+].[Na+].[Na+].[Na+].[Na+].[Na+]` [3-Trifluoromethylphenyl 2,3,6-tri-O-sulfo-4-O-(2,3,4,6-tetra-O-sulfo-α-D-glucopyranosyl)-1-thio-β-D-glucopyranoside heptasodium salt], the “In vitro Activity C1 026 Wells” value at activated human C1 was 5 Wells.

In general, inhibition refers to the relative decrease from the control value, in per cent.

Source of the values: patent US4470976A, “Poly-cation salt of 4-O-polyhexaose-thio-arylene sulfates” (American Cyanamid Company, priority 1983, dated 1984).
